The test system of this data set is CCRIS mutagenicity, Ames/micronucleus/aberration tests. In words: CCRIS mutagenicity studies.
The mark [1] stands for this setting: Test System: AMES SALMONELLA TYPHIMURIUM, Strain/Indicator: TA97, Metabolic Activation: NONE, Method: PREINCUBATION
Where [2] appears, read: Test System: AMES SALMONELLA TYPHIMURIUM, Strain/Indicator: TA98, Metabolic Activation: HAMSTER, LIVER, S-9, AROCLOR 1254 (30%), Method: PREINCUBATION
[3] abbreviates: Test System: AMES SALMONELLA TYPHIMURIUM, Strain/Indicator: TA98, Metabolic Activation: NONE, Method: PREINCUBATION
The mark [4] stands for this setting: Test System: AMES SALMONELLA TYPHIMURIUM, Strain/Indicator: TA98, Metabolic Activation: RAT, LIVER, S-9, AROCLOR 1254 (30%), Method: PREINCUBATION
Where [5] appears, read: Test System: AMES SALMONELLA TYPHIMURIUM, Strain/Indicator: TA100, Metabolic Activation: HAMSTER, LIVER, S-9, AROCLOR 1254 (30%), Method: PREINCUBATION
Where [6] appears, read: Test System: AMES SALMONELLA TYPHIMURIUM, Strain/Indicator: TA100, Metabolic Activation: NONE, Method: PREINCUBATION
The mark [7] stands for this setting: Test System: AMES SALMONELLA TYPHIMURIUM, Strain/Indicator: TA100, Metabolic Activation: RAT, LIVER, S-9, AROCLOR 1254 (30%), Method: PREINCUBATION
The mark [8] stands for this setting: Test System: AMES SALMONELLA TYPHIMURIUM, Strain/Indicator: TA98, Metabolic Activation: NONE, Method: STANDARD PLATE.
Setting [9] is: Test System: AMES SALMONELLA TYPHIMURIUM, Strain/Indicator: TA100, Metabolic Activation: NONE, Method: STANDARD PLATE.

The structures appear in SMILES notation. The source made the active and inactive calls. How the calls were made is not given here.

On to `CC/C=C/C#N`, for which the mutagenic call is “inactive; negative” (Test System: AMES SALMONELLA TYPHIMURIUM, Strain/Indicator: TA97, Metabolic Activation: HAMSTER, LIVER, S-9, AROCLOR 1254 (10%), Method: PREINCUBATION); “inactive; negative” (Test System: AMES SALMONELLA TYPHIMURIUM, Strain/Indicator: TA97, Metabolic Activation: HAMSTER, LIVER, S-9, AROCLOR 1254 (30%), Method: PREINCUBATION); “inactive; negative” under setting [1]; “inactive; negative” (Test System: AMES SALMONELLA TYPHIMURIUM, Strain/Indicator: TA97, Metabolic Activation: RAT, LIVER, S-9, AROCLOR 1254 (10%), Method: PREINCUBATION); “inactive; negative” (Test System: AMES SALMONELLA TYPHIMURIUM, Strain/Indicator: TA97, Metabolic Activation: RAT, LIVER, S-9, AROCLOR 1254 (30%), Method: PREINCUBATION); “inactive; negative” (Test System: AMES SALMONELLA TYPHIMURIUM, Strain/Indicator: TA98, Metabolic Activation: HAMSTER, LIVER, S-9, AROCLOR 1254 (10%), Method: PREINCUBATION). Besides, the mutagenic call is, setting by setting: under setting [2], “inactive; negative”; under setting [3], “inactive; negative”; (Test System: AMES SALMONELLA TYPHIMURIUM, Strain/Indicator: TA98, Metabolic Activation: RAT, LIVER, S-9, AROCLOR 1254 (10%), Method: PREINCUBATION) “inactive; negative”; under setting [4], “inactive; negative”; (Test System: AMES SALMONELLA TYPHIMURIUM, Strain/Indicator: TA100, Metabolic Activation: HAMSTER, LIVER, S-9, AROCLOR 1254 (10%), Method: PREINCUBATION) “inactive; negative”; under setting [5], “inactive; negative”. Moreover, the mutagenic call under setting [6] is “inactive; negative”; the mutagenic call (Test System: AMES SALMONELLA TYPHIMURIUM, Strain/Indicator: TA100, Metabolic Activation: RAT, LIVER, S-9, AROCLOR 1254 (10%), Method: PREINCUBATION) was “inactive; negative”; the mutagenic call under setting [7] is “inactive; negative”; the mutagenic call (Test System: AMES SALMONELLA TYPHIMURIUM, Strain/Indicator: TA1535, Metabolic Activation: HAMSTER, LIVER, S-9, AROCLOR 1254 (10 OR 30%), Method: PREINCUBATION) was “inactive; negative”; the mutagenic call (Test System: AMES SALMONELLA TYPHIMURIUM, Strain/Indicator: TA1535, Metabolic Activation: NONE, Method: PREINCUBATION) was “inactive; negative”; the mutagenic call (Test System: AMES SALMONELLA TYPHIMURIUM, Strain/Indicator: TA1535, Metabolic Activation: RAT, LIVER, S-9, AROCLOR 1254 (10%), Method: PREINCUBATION) is “inactive; negative”. Moreover, the mutagenic call by setting is: (Test System: AMES SALMONELLA TYPHIMURIUM, Strain/Indicator: TA1535, Metabolic Activation: RAT, LIVER, S-9, AROCLOR 1254 (30%), Method: PREINCUBATION) “inactive; negative”; (Test System: AMES SALMONELLA TYPHIMURIUM, Strain/Indicator: TA1537, Metabolic Activation: HAMSTER, LIVER, S-9, AROCLOR 1254 (10 OR 30%), Method: PREINCUBATION) “inactive; negative”.

Regarding `COC(=O)C1=CCCN(C)C1`, the mutagenic call was “inactive; negative” under setting [8]; “inactive; negative” (Test System: AMES SALMONELLA TYPHIMURIUM, Strain/Indicator: TA98, Metabolic Activation: RAT, LIVER, S-9, Method: STANDARD PLATE); “active; positive” under setting [9]; “active; positive” (Test System: AMES SALMONELLA TYPHIMURIUM, Strain/Indicator: TA100, Metabolic Activation: RAT, LIVER, S-9, Method: STANDARD PLATE).

With `COc1cc(-c2cc(OC)cc(C(C)(C)C)c2O)c(O)c(C(C)(C)C)c1`, the mutagenic call is, setting by setting: under setting [1], “inactive; negative”; (Test System: AMES SALMONELLA TYPHIMURIUM, Strain/Indicator: TA97, Metabolic Activation: RAT, LIVER, S-9, PCB, Method: PREINCUBATION) “inactive; negative”; under setting [3], “inactive; negative”; (Test System: AMES SALMONELLA TYPHIMURIUM, Strain/Indicator: TA98, Metabolic Activation: RAT, LIVER, S-9, PCB, Method: PREINCUBATION) “inactive; negative”; under setting [6], “inactive; negative”; (Test System: AMES SALMONELLA TYPHIMURIUM, Strain/Indicator: TA100, Metabolic Activation: RAT, LIVER, S-9, PCB, Method: PREINCUBATION) “inactive; negative”. The mutagenic call by setting is: (Test System: AMES SALMONELLA TYPHIMURIUM, Strain/Indicator: TA102, Metabolic Activation: NONE, Method: PREINCUBATION) “inactive; negative”; (Test System: AMES SALMONELLA TYPHIMURIUM, Strain/Indicator: TA102, Metabolic Activation: RAT, LIVER, S-9, PCB, Method: PREINCUBATION) “inactive; negative”.

For `Nc1cc([N+](=O)[O-])c(CO)c([N+](=O)[O-])c1`, the mutagenic call (End Point: In vitro chromosomal aberrations, Test System: V79 Chinese hamster fibroblasts, Metabolic Activation: None) was “inactive; negative”; the mutagenic call (Test System: Ames Salmonella typhimurium, Strain/Indicator: TA98, Metabolic Activation: None, Method: Standard plate) is “active; positive”; the mutagenic call (Test System: Ames Salmonella typhimurium, Strain/Indicator: TA98, Metabolic Activation: Rat, Liver, S-9, Method: Standard plate) was “active; positive”; the mutagenic call (Test System: Ames Salmonella typhimurium, Strain/Indicator: TA98NR, Metabolic Activation: None, Method: Standard plate) is “active; positive, ta98nr is the nitroreductase-deficient derivative of ta98”; the mutagenic call (Test System: Ames Salmonella typhimurium, Strain/Indicator: TA100, Metabolic Activation: None, Method: Standard plate) was “active; positive”; the mutagenic call (Test System: Ames Salmonella typhimurium, Strain/Indicator: TA100, Metabolic Activation: Rat, Liver, S-9, Method: Standard plate) is “active; positive”.

With `Oc1cc(O)c2c(c1)O[C@H](c1ccc(O)c(O)c1)[C@@H](O)C2`, the mutagenic call is “inactive; negative” (Test System: Ames Salmonella typhimurium, Strain/Indicator: TA102, Metabolic Activation: None, Method: Preincubation) and “inactive; negative” (Test System: Ames Salmonella typhimurium, Strain/Indicator: TA102, Metabolic Activation: Rat, Liver, S-9, Aroclor 1254 in 0.154 M KCl, Method: Preincubation).

For `Cc1ccc2cc3c4c(ccc3c3c2c1CC3)C=C[C@H](O)[C@H]4O`, the mutagenic call (Test System: CHINESE HAMSTER V-79, Strain/Indicator: V-79/8-AZAGUANINE, Metabolic Activation: NONE, Method: STANDARD PLATE) is “active; positive”.

For the molecule `CC(=O)OCCN(CCOC(C)=O)c1ccc([N+](=O)[O-])c2c(NCCCN(C)C)c3ccccc3nc12`, the mutagenic call is, setting by setting: under setting [8], “active; positive”; under setting [9], “active; positive”.

`COc1cc(Cl)c(OC)cc1Cl`: the mutagenic call reads like this: (Test System: AMES SALMONELLA TYPHIMURIUM, Strain/Indicator: TA98, Metabolic Activation: HAMSTER, LIVER, S-9, AROCLOR 1254 (5 OR 10%), Method: PREINCUBATION) “inactive; negative”; under setting [2], “inactive; negative”; under setting [3], “inactive; negative”; under setting [4], “inactive; negative”; (Test System: AMES SALMONELLA TYPHIMURIUM, Strain/Indicator: TA100, Metabolic Activation: HAMSTER, LIVER, S-9, AROCLOR 1254 (5 OR 10%), Method: PREINCUBATION) “inactive; negative”; under setting [5], “active; positive”. Besides, the mutagenic call runs as follows: under setting [6], “inactive; negative”; under setting [7], “inactive; negative”.

In the case of `O=NN(CCCl)C(=O)NCCCl`, the mutagenic call is, setting by setting: (End Point: In vitro micronucleus, Test System: Human lymphoblastoid TK6 cells, Metabolic Activation: None) “active; positive (not dose related)”; (Test System: AMES SALMONELLA TYPHIMURIUM, Strain/Indicator: TA1535, Metabolic Activation: NONE, Method: STANDARD PLATE) “active; positive”; (Test System: CHINESE HAMSTER OVARY, Strain/Indicator: D422 (APRT), Metabolic Activation: NONE, Method: REPLATING) “active; positive”; (Test System: CHINESE HAMSTER V-79, Strain/Indicator: V-79/6-THIOGUANINE, Metabolic Activation: NONE, Method: STANDARD PLATE) “active; positive”.

Source of the values: PubChem BioAssay AID1259407 (Chemical Carcinogenesis Research Information System (CCRIS), 2018).
